Reference: patent US20250129021A1, “SMALL MOLECULE PROTEIN SYNTHESIS MODULATORS” (Interdict Bio, Inc., priority 2023, published 2025)

What was measured:
Format in all cases: biochemical
MYC = assay: In vitro transcription-translation (IVTT) assay, MYC reporter; conditions: IVTT assay, HeLa S3 lysate, MYC reporter, normalized sfGFP/mCherry ratio; half-log dilutions 30 μM-0.1 μM, 2 hrs at 30° C.
Summary of the method: (§1)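 Reporter: mCherry, P2A, then 3×FLAG-target peptide-sfGFP fusion, IRES-initiated; HeLa S3 lysate IVTT; cpd dilutions 30 μM−0.1 μM half-log in 100% DMSO (dilution-plate conc); DNA added last; 2 h, 30° C; PBS quench.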

MCL-1 = assay: In vitro transcription-translation (IVTT) assay, MCL-1 reporter; conditions: IVTT assay, HeLa S3 lysate, sfGFP/mCherry ratio; read-out: MCL1 IC50
Summary of the method: as §1

CCNTB1 = assay: In vitro transcription-translation (IVTT) assay, CCNTB1 reporter; conditions: HeLa S3 lysate, sfGFP/mCherry ratio
Experimental: In vitro transcription-translation assay setup: Each assay includes a master mix containing lysate and shared components, a 96-well plate containing compound titrations for testing, a 96-well DNA plate with reporter constructs to be tested, 96-well skirted PCR plates, and 96-well flat-bottom, black, fluorescent assay plates. Reaction materials setup: (A) Master mix—15 mL conical tube (3 mL of HeLa S3 Lysate described above; 0.6 mL of ThermoFisher Accessory Proteins (#88882); 1.2 ml of ThermoFisher Reaction Mix (#88882); 0.54 mL of nuclease-free Water); (B) 96-Well Master Mix+Compound Plate (Half-log dilutions (30 μM−0.1 μM) of 4 compounds of interest are prepared in 100% DMSO); 96-Well DNA Plate (Five DNA constructs are plated into single columns within the plate. Row 1 of the column contains nuclease free H2O, all other wells contain 110 ng/μL plasmid DNA). Reactions are started by mixing 155 μL of master mix and 3.5 μL of compound serial dilutions, then 9.1 μL of master mix+compound mixture is aliquoted across 5 96-well plates. Reactions begin with final addition of 2 μL of DNA for a 11.1 μL reaction volume in each well. The entire plate is sealed, and incubated for 2 hrs at 30° C. After 2 hrs, quench the assay using 45 μL of PBS, and transfer 50 μL to a flat-bottom black microplate Quantify the sfGFP and mCherry signals from each well on each plate, taking 3 reads of each plate, and perform data analysis below.
In vitro transcription-translation assay data analysis: Each plate is read three times in channels for both sfGFP and mCherry signals. The average signal across these 3 reads is then calculated for further analysis. Control wells containing no DNA reporter are subtracted from reporter wells in the same column to remove auto-fluorescence of the lysate. Then, the ratio of sfGFP/mCherry is calculated per well, and these ratios are averaged across the triplicate experiments on the same plate. Finally, the ratio of each titration concentration is normalized to the no drug control to create the normalized stalling metric. The error on this measurement is determined by propagating error through the averaging and normalization steps. Values are plotted and fit for IC50 determination for each test sequence and titration of compound.

CCND1 = assay: In vitro transcription-translation (IVTT) assay, CCND1 reporter; conditions: IVTT assay, HeLa S3 lysate, sfGFP/mCherry ratio
Summary of the method: as §1

SMILES	IC50 (MCL-1) [µM]	IC50 (CCNTB1) [µM]	IC50 (CCND1) [µM]	IC50 (MYC) [µM]
COc1ccc(C[C@H]2NC[C@H](O)[C@H]2OC(=O)NCC[C@H]2CCC3(CC3)N2)cc1 [V192043, (2R,3S,4S)-4-hydroxy-2-[(4-methoxyphenyl)methyl]pyrrolidin-3-yl N-{2-[(5R)-4-azaspiro[2.4]heptan-5-yl]ethyl}carbamate]	> 30	> 30	> 30	> 30
COc1ccc(C[C@H]2NC[C@H](O)[C@H]2OC(=O)NCC[C@H]2CCCNC2)cc1 [V192046, (2R,3S,4S)-4-hydroxy-2-[(4-methoxyphenyl)methyl]pyrrolidin-3-yl N-{2-[(3R)-piperidin-3-yl]ethyl}carbamate]	< 10	< 10	10 to 20	< 10
O=C(NCC[C@H]1CCCN1)O[C@@H]1[C@@H](O)CN[C@@H]1Cc1ccc(-c2cnco2)cc1 [V192048, (2R,3S,4S)-4-hydroxy-2-{[4-(1,3-oxazol-5-yl)phenyl]methyl}pyrrolidin-3-yl N-{2-[(2R)-pyrrolidin-2-yl]ethyl}carbamate]	< 10	< 10	< 10	< 10
COc1ccc(C[C@H]2NC[C@H](O)[C@H]2OC(=O)NCC[C@@H]2CCCNC2)cc1 [V191903, (2R,3S,4S)-4-hydroxy-2-[(4-methoxyphenyl)methyl]pyrrolidin-3-yl N-{2-[(3S)-piperidin-3-yl]ethyl}carbamate]	< 10	< 10	10 to 20	< 10
O=C(NCC[C@H]1CCCN1)O[C@@H]1[C@@H](O)CN[C@@H]1Cc1ccc(-c2ccc3c(c2)CC(F)(F)C3)cc1 [V192040, (2R,3S,4S)-2-{[4-(2,2-difluoro-1,3-dihydroinden-5-yl)phenyl]methyl}-4-hydroxypyrrolidin-3-yl N-{2-[(2R)-pyrrolidin-2-yl]ethyl}carbamate]	10 to 20	< 10	20 to 30	10 to 20
O=C(NCCC1CCNCC1)O[C@@H]1[C@@H](O)CN[C@@H]1Cc1ccc(-c2cncs2)cc1 [V192112, (2R,3S,4S)-4-hydroxy-2-{[4-(1,3-thiazol-5-yl)phenyl]methyl}pyrrolidin-3-yl N-[2-(piperidin-4-yl)ethyl]carbamate]	< 10	< 10	< 10	< 10
O=C(NCC[C@H]1CCCN1)O[C@@H]1[C@@H](O)CN[C@@H]1Cc1ccc(-c2ccc(S(F)(F)(F)(F)F)cc2)cc1 [V192039, (2R,3S,4S)-4-hydroxy-2-{[4′-(pentafluoro-lambda6-sulfanyl)-[1,1′-biphenyl]-4-yl]methyl}pyrrolidin-3-yl N-{2-[(2R)-pyrrolidin-2-yl]ethyl}carbamate]		> 30	> 30	> 30
COc1ccc(C[C@H]2NC[C@H](O)[C@H]2OC(=O)NCC[C@@H]2CC(F)(F)CN2)cc1 [V190526, (2R,3S,4S)-4-hydroxy-2-[(4-methoxyphenyl)methyl]pyrrolidin-3-yl N-{2-[(2R)-4,4-difluoropyrrolidin-2-yl]ethyl}carbamate]	10 to 20	< 10	> 30	10 to 20
O=C(NCC[C@H]1CCCN1)O[C@@H]1[C@@H](O)CN[C@@H]1Cc1ccc(-c2ccccc2)cc1 [V192036, (2R,3S,4S)-2-{[1,1′-biphenyl]-4-ylmethyl}-4-hydroxypyrrolidin-3-yl N-{2-[(2R)-pyrrolidin-2-yl]ethyl}carbamate]		< 10	10 to 20	< 10
COc1ccc(C[C@H]2NC[C@H](O)[C@H]2OC(=O)NCCC2(N)CC2)cc1 [V191989, (2R,3S,4S)-4-hydroxy-2-(4-methoxybenzyl)pyrrolidin-3-yl (2-(1-aminocyclopropyl)ethyl)carbamate]		< 10	< 10	< 10
O=C(NCC[C@H]1CCCN1)O[C@@H]1[C@@H](O)CN[C@@H]1Cc1ccc(-c2ccc(C(F)(F)F)cc2)cc1 [V192038, (2R,3S,4S)-4-hydroxy-2-{[4′-(trifluoromethyl)-[1,1′-biphenyl]-4-yl]methyl}-pyrrolidin-3-yl N-{2-[(2R)-pyrrolidin-2-yl]ethyl}carbamate; Trifluoroacetic Acid]		> 30	> 30	> 30

Second part, led by results:

IC50 (MCL-1) [µM]	IC50 (CCNTB1) [µM]	IC50 (CCND1) [µM]	SMILES	IC50 (MYC) [µM]
> 30	10 to 20	> 30	O=C(NCc1cccc(F)c1)O[C@@H]1[C@@H](O)CN[C@@H]1Cc1ccc(-c2nnc(C(F)(F)F)s2)cc1 [V192102, (2R,3S,4S)-4-hydroxy-2-({4-[5-(trifluoromethyl)-1,3,4-thiadiazol-2-yl]phenyl}methyl)pyrrolidin-3-yl N-[(3-fluorophenyl)methyl]carbamate]	10 to 20
> 30	> 30	> 30	O=C(NCc1cccc(F)c1)O[C@@H]1[C@@H](O)CN[C@@H]1Cc1ccc(-c2ccc(C(F)(F)F)cc2)cc1 [V192083, (2R,3S,4S)-4-hydroxy-2-{[4′-(trifluoromethyl)-[1,1′-biphenyl]-4-yl]methyl}pyrrolidin-3-yl N-[(3-fluorophenyl)methyl]carbamate]	> 30
> 30	> 30	> 30	O=C(NCc1ccc2c(c1)CCNC2)O[C@@H]1[C@@H](O)CN[C@@H]1Cc1ccc(-c2ccc(S(F)(F)(F)(F)F)cc2)cc1 [V192059, (2R,3S,4S)-4-hydroxy-2-{[4′-(pentafluoro-lambda6-sulfanyl)-[1,1′-biphenyl]-4-yl]methyl}pyrrolidin-3-yl N-(1,2,3,4-tetrahydroisoquinolin-6-ylmethyl)carbamate]	> 30
> 30	20 to 30	> 30	O=C(NCc1cccc(F)c1)O[C@@H]1[C@@H](O)CN[C@@H]1Cc1ccc(-c2cnoc2)cc1 [V190543, (2R,3S,4S)-4-hydroxy-2-{[4-(1,2-oxazol-4-yl)phenyl]methyl}pyrrolidin-3-yl N-[(3-fluorophenyl)methyl]carbamate]	< 10
< 10	< 10	10 to 20	COc1ccc(C[C@H]2NC[C@H](O)[C@H]2OC(=O)NCc2cc(F)c(O)c(F)c2)cc1 [V191939, (2R,3S,4S)-4-hydroxy-2-[(4-methoxyphenyl)methyl]pyrrolidin-3-yl N-[(3,5-difluoro-4-hydroxyphenyl)methyl]carbamate]	10 to 20
< 10	10 to 20	< 10	COc1ccc(C[C@H]2NC[C@H](O)[C@H]2OC(=O)NCc2ccnc(N3CC(F)(F)C3)c2)cc1 [V192066, (2R,3S,4S)-4-hydroxy-2-[(4-methoxyphenyl)methyl]pyrrolidin-3-yl N-{[2-(3,3-difluoroazetidin-1-yl)pyridin-4-yl]methyl}carbamate]	< 10
< 10	< 10	< 10	O=C(NCc1ccc2c(c1)CCNC2)O[C@@H]1[C@@H](O)CN[C@@H]1Cc1ccc(-c2cnco2)cc1 [V192056, (2R,3S,4S)-4-hydroxy-2-{[4-(1,3-oxazol-5-yl)phenyl]methyl}pyrrolidin-3-yl N-(1,2,3,4-tetrahydroisoquinolin-6-ylmethyl)carbamate]	< 10
< 10	< 10	< 10	O=C(NCCC1CCNCC1)O[C@@H]1[C@@H](O)CN[C@@H]1Cc1ccc(-c2ccc(F)c(F)c2)cc1 [V192051, (2R,3S,4S)-2-({3′,4′-difluoro-[1,1′-biphenyl]-4-yl}methyl)-4-hydroxypyrrolidin-3-yl N-[2-(piperidin-4-yl)ethyl]carbamate]	< 10
< 10	< 10	10 to 20	O=C(NCc1cccc(F)c1)O[C@@H]1[C@@H](O)CN[C@@H]1Cc1ccc(-c2ccc3ncsc3c2)cc1 [V192103, (2R,3S,4S)-2-{[4-(1,3-benzothiazol-6-yl)phenyl]methyl}-4-hydroxypyrrolidin-3-yl N-[(3-fluorophenyl)methyl]carbamate]	< 10
